Measured values published in ChEMBL document CHEMBL1157323, “Chloriolide, a 12-membered macrolide from Chloridium virescens var. chlamydosporum (NRRL 37636)” (J Nat Prod, 2006).
Activity calls are given as the source filed them.

Assays:
Format in all cases: functional, organism-based
Bacillus subtilis = test: Antibacterial activity against Bacillus subtilis ATCC 6051
Aspergillus flavus = test: Antifungal activity against Aspergillus flavus NRRL 6541 at 200 ug/disk by standard disk assay
Fusarium verticillioides = test: Antifungal activity against Fusarium verticillioides NRRL 25457 at 200 ug/disk by standard disk assay
Escherichia coli = test: Antibacterial activity against Escherichia coli ATCC 25922
Staphylococcus aureus = test: Antibacterial activity against Staphylococcus aureus ATCC 29213

Measured: Activity

C[C@H]1CCC[C@@H](O)/C=C\[C@H](O)/C=C/C(=O)O1
inactive: all assays above
